Assay [1] deals with T1, recombinant human ABHD6 (33-337) (Homo sapiens, UniProt Q9BV23).
T1 construct: recombinant human ABHD6 (33-337); GST; made in house; host or cells: E. coli
T1 sequence (Q9BV23 33-337): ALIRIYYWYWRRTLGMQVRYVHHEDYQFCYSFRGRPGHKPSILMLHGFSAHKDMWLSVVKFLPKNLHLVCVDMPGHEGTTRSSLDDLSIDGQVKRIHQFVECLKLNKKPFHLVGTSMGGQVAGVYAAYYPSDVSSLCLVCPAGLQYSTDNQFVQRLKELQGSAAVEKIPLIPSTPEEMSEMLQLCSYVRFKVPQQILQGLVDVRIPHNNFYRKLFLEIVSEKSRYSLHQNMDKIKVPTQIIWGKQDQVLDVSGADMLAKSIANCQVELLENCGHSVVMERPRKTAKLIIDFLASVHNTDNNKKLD
Description: Evaluation of ABHD6 enzyme inhibitory activity (arachidonic acid production from 1-arachidonoyl glycerol, RapidFire-MS). In kind it is biochemical. The following applies: recombinant human GST-tagged ABHD6 (33-337), substrate 1-arachidonoyl glycerol 10 μmol/L, 1 hour, room temperature. How it is done: The recombinant human ABHD6 (33-337) was a GST-tagged ABHD6, and one which was expressed in E. coli, then purified with a Glutathione-Sepharose 4B resin, and then concentrated was used. The enzyme reaction was carried out at room temperature using a 384-well microplate made of polypropylene, and wells to which no enzyme was added were designated as a blank group.
One hour after the start of the enzyme reaction, methanol containing, as an internal standard substance, arachidonic acid-d8 (Cayman Chemical) and 1% formic acid was added to stop enzymatic reaction. The upper part of the enzyme reaction plate was sealed with aluminum, and centrifugation was performed at 560 g for 5 minutes at room temperature. Then, arachidonic acid as an enzyme reaction product and arachidonic acid-d8 as the internal standard substance were quantified with RapidFire (registered trademark)-Mass Spectrometry system.

The next assay concerns the target T2, human ABHD6 (Homo sapiens, UniProt Q9BV23).
T2 construct: expressed in transfected cells; host or cells: HEK293
T2 sequence (Q9BV23 1-337): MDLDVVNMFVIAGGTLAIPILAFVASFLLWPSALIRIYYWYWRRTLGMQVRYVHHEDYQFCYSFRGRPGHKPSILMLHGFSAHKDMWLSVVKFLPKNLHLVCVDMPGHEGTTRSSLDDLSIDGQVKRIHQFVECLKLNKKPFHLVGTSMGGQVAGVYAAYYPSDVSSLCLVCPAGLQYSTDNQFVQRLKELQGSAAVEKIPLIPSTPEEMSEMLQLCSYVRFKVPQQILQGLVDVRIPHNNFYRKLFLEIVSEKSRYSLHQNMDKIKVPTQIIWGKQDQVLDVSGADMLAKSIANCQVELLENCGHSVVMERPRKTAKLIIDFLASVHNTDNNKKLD
Description: Measurement of binding affinity for human ABHD6 (BRET, HEK293 cells expressing NanoLuc-human ABHD6 fusion protein). The following applies: fluorescent probe 100 nmol/L. How it is done:
The binding affinity of the test compound for human ABHD6 was measured using bioluminescence resonance energy transfer (hereinafter, abbreviated as BRET) as an index. The bioluminescence resonance energy transfer is induced by the proximity of a probe molecule and a NanoLuc-human ABHD6 fusion protein, which is caused by allowing a fluorescent probe molecule and a test compound to act in a competitive manner using HEK293 cells forcibly expressing the NanoLuc-human ABHD6 fusion protein.
The test compound and the compound described in Example 2 as a control substance were each dissolved in dimethyl sulfoxide (DMSO) to prepare a 10 mmol/L solution. The prepared 10 mmol/L solution was thawed at the time of use, serially diluted with DMSO, and subjected to an experiment.
HEK293 cells expressing a NanoLuc-human ABHD6 fusion protein were statically cultured at 37° C. in the presence of 5% CO2 using inactivated (56° C., 30 min) 9.8 vol % non-dialyzed-FBS (containing 0.5 vol % GENETICIN and 1% penicillin-streptomycin). The subculture was performed by the following method.
The culture medium was removed, and the cells were washed once with phosphate buffered saline without Ca^2+ and Mg^2+. An appropriate amount of trypsin-EDTA was added, and the cells were incubated at room temperature. After the cells were detached, a culture medium in a volume 10-fold the volume of trypsin-EDTA (0.05%) was added to stop an enzyme reaction. The cells were collected in a centrifuge tube, and centrifuged at room temperature for 3 minutes at 120 g, and the supernatant was removed. The cells were suspended in an appropriate amount of culture medium and seeded in a culture flask.
HEK293 cells expressing a NanoLuc-human ABHD6 fusion protein were prepared, and then cryopreserved so as to be 5.0×10^6 cells/mL/vial in CELLBANKER2, and the cells were subjected to an experiment. HBSS (+) containing 20 mmol/L HEPES (pH 7.3) and 0.1% BSA was prepared and used as an assay buffer. The cells were thawed and suspended in the assay buffer to prepare a cell suspension of 2×10^5 cells/mL. […] The plate was allowed to stand at 37° C. for 30 minutes in the presence of 5% CO2. Then, a probe molecule (10 mmol/L in DMSO) having a fluorophore was diluted with the assay buffer so as to have a final concentration of 100 nmol/L, and added to the assay plate in an amount of 15 μL each. Further, this was allowed to stand at 37° C. for 30 minutes in the presence of 5% CO2. Then, a Nano-Glo (registered trademark) Vivazine (trademark) substrate (Promega Corporation) was diluted with the assay buffer according to the method described in the protocol, and added to the assay plate in an amount of 10 μL each, and this was allowed to stand at room temperature for 1 hour. Thereafter, the luminescence and fluorescence intensity were measured using a GloMax (registered trademark) discover system. The ratio between the emission intensity through the 450 nm bandpass filter and the fluorescence intensity through the 600 nm longpass filter was defined as the measured value of each sample. […] The measured value of the group not containing the compound was defined as 0% inhibition. The IC50 value of the test compound was determined from the measured value at each test compound concentration.
In general terms: In BRET a luciferase serves as donor, and the signal depends on an acceptor being close.

Bounds are passed on as bounds.

As for `Cc1ccc(C(=O)N2C[C@@H]3CC[C@@H](Oc4ccc(Br)nn4)[C@@H]3C2)s1` [Example 1-1, [(3aS,4R,6aR)-4-[(6-Bromo-3-pyridazinyl)oxy]hexahydrocyclopenta[c]pyrrol-2(1H)-yl](5-methyl-2-thienyl)methanone], the IC50 (usually the concentration at which inhibition is half-maximal) in assay [1] is 1 nM; at human ABHD6, 11 nM.

Take `O=C(c1cc2nn(C3CC3)cc2s1)N1C[C@@H]2CC[C@@H](Oc3ccc(Br)nn3)[C@@H]2C1` [Example 1-4, [(3aS,4R,6aR)-4-[(6-Bromo-3-pyridazinyl)oxy]hexahydrocyclopenta[c]pyrrol-2(1H)-yl](2-cyclopropyl-2H-thieno[3,2-c]pyrazol-5-yl)methanone]: the IC50 is less than 1 nM in assay [1] and 4 nM on human ABHD6.

For the molecule `O=C(c1ccc(C(F)F)s1)N1C[C@@H]2CC[C@@H](Oc3ccc(Br)nn3)[C@@H]2C1` [Example 1-7, [(3aS,4R,6aR)-4-[(6-Bromo-3-pyridazinyl)oxy]hexahydrocyclopenta[c]pyrrol-2(1H)-yl][5-(difluoromethyl)-2-thienyl]methanone], the IC50 in assay [1] is less than 1 nM; on human ABHD6, 20 nM.

For `Cn1ncc2cc(C(=O)N3C[C@@H]4CC[C@@H](Oc5ccc(Br)nn5)[C@@H]4C3)sc21` [Example 1-10, [(3aS,4R,6aR)-4-[(6-Bromo-3-pyridazinyl)oxy]hexahydrocyclopenta[c]pyrrol-2(1H)-yl](1-methyl-1H-thieno[2,3-c]pyrazol-5-yl)methanone], the IC50 was less than 1 nM in assay [1] and 4 nM at human ABHD6.

`COC(=O)N1CCc2sc(C(=O)N3C[C@@H]4CC[C@@H](Oc5ccc(Br)nn5)[C@@H]4C3)cc2C1` [Example 1-13]: the IC50 is less than 1 nM in assay [1] and 5 nM on human ABHD6.

Turning to `O=C(c1ccc(OCCF)s1)N1C[C@@H]2CC[C@@H](Oc3ccc(Br)nn3)[C@@H]2C1` [Example 1-19, [(3aS,4R,6aR)-4-[(6-Bromo-3-pyridazinyl)oxy]hexahydrocyclopenta[c]pyrrol-2(1H)-yl][5-(2-fluoroethoxy)-2-thienyl]methanone], the IC50 in assay [1] is less than 1 nM; at human ABHD6, 10 nM.

For `O=C(c1cc2c(s1)CCOC2)N1CC2CCC(Oc3nnc(Cl)c4ccsc34)C2C1` (stereo not shown) [Example 2-3, {4-[(4-Chlorothieno[2,3-d]pyridazin-7-yl)oxy]hexahydrocyclopenta[c]pyrrol-2(1H)-yl}(6,7-dihydro-4H-thieno[3,2-c]pyran-2-yl)methanone], the figures for the IC50 (in assay [1]; on human ABHD6) were 1 nM and 9 nM, respectively.

In the case of `COc1cc(Cl)nnc1O[C@@H]1CC[C@H]2CN(C(=O)c3cc4c(s3)CCOC4)C[C@H]21` [Example 2-5, [(3aS,4R,6aR)-4-[(6-Chloro-4-methoxy-3-pyridazinyl)oxy]hexahydrocyclopenta[c]pyrrol-2(1H)-yl](6,7-dihydro-4H-thieno[3,2-c]pyran-2-yl)methanone], the IC50 is 2 nM in assay [1] and 9 nM at human ABHD6.

Consider `O=C(c1cc2c(s1)CCOC2)N1C[C@@H]2CC3(CC3)[C@@H](Oc3ccc(Br)nn3)[C@@H]2C1` [Example 4, [(3aS,4S,6aR)-4-[(6-Bromo-3-pyridazinyl)oxy]tetrahydro-1H-spiro[cyclopenta[c]pyrrole-5,1′-cyclopropan]-2(3H)-yl](6,7-dihydro-4H-thieno[3,2-c]pyran-2-yl)methanone], for which the IC50 is less than 1 nM in assay [1] and 1 nM on human ABHD6.

Take `O=C(c1cc2c(s1)CCOC2)N1C[C@@H]2CC[C@@H](Oc3ccc(Br)nn3)[C@]2(O)C1` [Example 7, [(3aR,4R,6aS)-4-[(6-Bromo-3-pyridazinyl)oxy]-3a-hydroxyhexahydrocyclopenta[c]pyrrol-2(1H)-yl](6,7-dihydro-4H-thieno[3,2-c]pyran-2-yl)methanone]: the IC50 in assay [1] came out at 2 nM; on human ABHD6 it was 3 nM.

Regarding `O=C(c1cc2c(s1)CCOC2)N1C[C@@H]2C[C@H](F)[C@@H](Oc3ccc(Br)nn3)[C@@H]2C1` [Example 9, [(3aS,4S,5S,6aR)-4-[(6-Bromo-3-pyridazinyl)oxy]-5-fluorohexahydrocyclopenta[c]pyrrol-2(1H)-yl](6,7-dihydro-4H-thieno[3,2-c]pyran-2-yl)methanone], the IC50 in assay [1] was less than 1 nM; on human ABHD6 it was 2 nM.

The record behind these values is patent US20260083735A1, “ABHD6 ANTAGONIST” (ONO PHARMACEUTICAL CO., LTD., priority 2022, published 2026).
